Test results from patent US20070213291A1, “Therapeutically useful synthetic oligonucleotides” (priority 1999, published 2007).

Assays:
[1] = test system: D-17 canine osteosarcoma cells; test: Inhibition of D-17 cell proliferation (MTT); assay type: cell-based; details: 100 μg/ml, 48 h, 5×10^5 cells/ml
Protocol: (§1) Cells were seeded in 6 (1 ml/well), 24 (0.5 ml/well) or 96 (0.1 ml/well) well flat-bottom microplates and were maintained at 37° C. in a 5% CO2 atmosphere. Unless stated otherwise, 2.5×10^5 cells/ml were incubated with 0 μg/ml (control) and 100 μg/ml (treated) of 2 to 45 base sequences containing A, C, G and T for 48 h.
(§2) Cell proliferation was measured using dimethylthiazol-diphenyl-tetrazolium (MTT) reduction (Mosman et al. J. Immunol. Methods 65:55, 1983). MTT was measured at a wavelength of 570 nm using a multiplate spectrophotometer reader (ELX800, Bio-TEK Instruments Inc., Winooski, Vt.).
(§3) D-17 canine osteosarcoma cells and CF-51 canine mammary gland cancer cells are solid tumor models. D-17 canine osteosarcoma cells (5×10^5 cells/ml) (Table 20) and CF-51 canine mammary gland cancer cells (5×10^5 cells/ml) (Table 21) were incubated with 6, 9, 17, 27 and 33 base GT-sequences and with a 15 base ACG sequence.

[2] = test system: Jurkat human leukemia T cells; test: Cell cycle stage in Jurkat cells (propidium iodide flow cytometry); assay type: cell-based; details: Jurkat; for % of cells in phase: G0/G1 / % of cells in phase: G2/M / % of cells in phase: SE / % of cells in phase: SL / % of cells in phase: SM / Arrest (cell cycle): 24 h, 100 μg/ml; for cell cycle arrest: M. phlei murA derived sequences
In short: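 Exponentially growing Jurkat cells were exposed for 24 h to 2–45-base A/C/G/T oligonucleotides, or at 1×10^6 cells/ml to 6-base GT and AC strands, alone (heated 10 min, 65 °C) or hybridized 1:1. Detergent-, trypsin-, RNase- and spermine-treated nuclei were propidium iodide-stained and scored for G0/G1, early/mid/late S and G2/M by doublet-discriminating flow cytometry.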

[3] = test system: CF-51 canine mammary gland cancer cells; test: Inhibition of CF-51 cell proliferation (MTT); assay type: cell-based; details: 100 μg/ml, 48 h, 5×10^5 cells/ml
Protocol: as §1, §2, §3

[4] = test system: EL-4 murine T lymphoma cells; test: Inhibition of EL-4 cell proliferation (MTT); assay type: cell-based; details: 100 μg/ml, 48 h
Protocol: as §1, §2
EL-4 murine lymphoma T cells are a suspension tumor model. EL-4 murine lymphoma T cells were incubated with 6, 18, 27 and 33 base GT sequences and with a 15 base ACG sequence (Table 18).

caspase 3 [5] = test: Active caspase 3 by FITC-conjugated antibody flow cytometry; assay type: cell-based, human; details: Jurkat, 72 h, 100 μg/ml, cytometric (FIG. 2A)
Protocol: (§4) To determine caspase activation, control and treated cells are washed, fixed, permeabilized and incubated with an FITC-conjugated antibody that recognizes the active form of the caspase (Pharmingen, San Diego, Calif.) using the conditions recommended by the manufacturer. Fluorescence associated with active caspase 3 is analyzed by flow cytometry on a FACSCALIBUR using the program CellQUEST (Becton Dickinson). Alternatively, caspase activation is determined colorimetrically using an assay based on the cleavage of a caspase-specific peptide conjugated to the color reporter molecule p-nitroanilide, which can be quantitated spectrophotometrically at a wavelength of 405 nm.
(§5) Jurkat T cell leukemia cells were incubated for 72 h with 33 base GT SEQ ID NO:66; 11 base GT SEQ ID NO:81 (bases 1-11 of GT SEQ ID NO:66), 11 base GT SEQ ID NO:82 (bases 12-22 of GT SEQ ID NO:66), 11 base GT SEQ ID NO:83 (bases 23-33 of GT SEQ ID NO:66) and 15 base ACG SEQ ID NO:67. Active caspase 3 (17-22 kDa) was determined using FITC conjugated antibody (Clone: C92-605) as in Example 28.

caspase 3 [6] = test: Caspase 3 activation, colorimetric (p-nitroanilide peptide cleavage); assay type: cell-based, human; details: Jurkat, 72 h, 100 μg/ml
Protocol: as §4, §5
Caspase 3 activation also was determined colorimetrically as in Example 28.
Jurkat T cell leukemia cells were incubated for 72 h with 6 base GT SEQ ID NO:25. Caspase 3 activation was determined colorimetrically as in Example 28.

[7] = test system: Jurkat human leukemia T cells; test: Apoptosis by phosphatidylserine/annexin V-FITC flow cytometry; assay type: cell-based; details: M. phlei murA derived sequences
In short: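 Jurkat cells were exposed to 3–7-base oligonucleotides (GT, ACGT, AG, GG, AGT, CGT sequences) at 50 μM. Separately, 6-base GT and complementary AC sequences, alone or hybridized 1:1 (10 min, 65 °C), were applied for 24 h. Phosphatidylserine exposure was quantified by flow cytometry with FITC-annexin V.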

[8] = test system: Jurkat human leukemia T cells; test: Inhibition of Jurkat human leukemia T cell proliferation (MTT reduction); assay type: cell-based; details: for % INHIBITION of Jurkat human leukemia T cell proliferation: 100 μg/ml sequence, 48 h, 2.5×10^5 cells/ml
In short: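 Jurkat cells at 2.5×10^5 cells/ml exposed to 100 μg/ml of 2–45-base A/C/G/T sequences (0 μg/ml control) for 48 h, 37° C, 5% CO2. Viability by MTT reduction read at 570 nm.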

[9] = Melting temperature (Tm) of sequences; assay type: physicochemical
[10] = test system: EL-4 murine T lymphoma cells; test: EL-4 murine T lymphoma in C57/BL6 mice; assay type: in vivo; details: after 4 weeks of treatment, compared with group 1 (saline)
Protocol: EL-4 murine T lymphoma cells are implanted into C57/BL6 mice. The mice are divided into 6 groups of 10 mice. On day 0, group 1 mice receive saline, group 2 mice receive 3 base GT SEQ ID NO:8, group 3 mice receive 6 base SEQ ID NO:25, group 4 mice receive 6 base AG SEQ ID NO:45, group 5 mice receive 18 base GT SEQ ID NO: 18 and group 6 mice receive 27 base GT SEQ ID NO:1. After 4 weeks of treatment, the mice are sacrificed and tumor mass is determined.

[11] = test system: Jurkat human leukemia T cells; test: NuMA release into supernatant (ELISA); assay type: cell-based; details: Jurkat 1×10^6/ml
In short: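 Jurkat T cells (1×10^6/ml) exposed to GT-containing oligonucleotide sequences, at 50 μM in some experiments, for 24 h in some experiments. NuMA released into the supernatant quantified by commercial ELISA.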

[12] = test system: MCF-7 human breast cancer cells; test: Inhibition of MCF-7 cell proliferation (MTT); assay type: cell-based
In short: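 Cells at 2.5×10^5 cells/ml (GT 3- and 6-base series at 5×10^5 cells/ml) treated with 100 μg/ml of 2-45-base oligonucleotide sequences versus untreated control for 48 h at 37 °C, 5% CO2. Proliferation read by MTT reduction at 570 nm.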

[13] = 5-fluorouracil 0.1 μg/ml, alone or with sequence at 1.0 μg/ml
[14] = 5-fluorouracil 1.0 μg/ml, alone or with sequence at 1.0 μg/ml
[15] = 5-fluorouracil 10.0 μg/ml, alone or with sequence at 1.0 μg/ml
[16] = sequence at 1.0 μg/ml, 5-fluorouracil 0.0 μg/ml

## AACCACAAGCCCAAC (DNA, backbone not given here) [SEQ ID NO:67]
[1]
  % INHIBITION of D-17 canine osteosarcoma cell proliferation: 20%
[2]
  % of cells in phase: G0/G1: 39.6%
  % of cells in phase: G2/M: 24.6%
  % of cells in phase: SE: 13.5%
  % of cells in phase: SL: 9.5%
  % of cells in phase: SM: 12.8%
  Arrest (cell cycle): None
  cell cycle arrest: No
[3]
  % INHIBITION of CF-51 canine mammary gland cancer cell proliferation: 20%
[4]
  % INHIBITION of EL-4 murine T lymphoma cell proliferation: −6%
Caspase 3 [5]
  processing of inactive pro-caspase 3 to active caspase 3: did not induce processing of inactive pro-caspase 3 to active caspase 3
Caspase 3 [6]
  caspase 3 activity greater than in control cells: approximately the same as in control cells
[7]
  % at cells in apoptosis: 0%
[8]
  % INHIBITION of Jurkat human leukemia T cell proliferation: 4%

## GGGTGGGGGTGG [SEQ ID NO:68]
[9]
  melting temperature (Tm): 56.8 °C
[8]
  % INHIBITION of Jurkat human leukemia T cell proliferation: 18%

## GGGTGGGGGTGGGGGTGG [SEQ ID NO:69]
[9]
  melting temperature (Tm): 76.3 °C
[8]
  % INHIBITION of Jurkat human leukemia T cell proliferation: 5%

## GGGTGGGGGTGGGGGTGGGGGTGG (unmodified DNA) [SEQ ID NO:70]
[9]
  melting temperature (Tm): 86.3 °C
[8]
  % INHIBITION of Jurkat human leukemia T cell proliferation: 13%

## GGTTTTGTTTG (unmodified DNA) [SEQ ID NO:82]
[2]
  cell cycle arrest: End SE
Caspase 3 [5]
  processing of inactive pro-caspase 3 to active caspase 3: induced processing of inactive pro-caspase 3 to active caspase 3
Caspase 3 [6]
  caspase 3 activity greater than in control cells: 100%
[7]
  % at cells in apoptosis: 25%
[8]
  % INHIBITION of Jurkat human leukemia T cell proliferation: 20%
[8]; M. phlei murA derived sequences
  proliferation, cell cycle arrest and apoptosis of Jurkat T cells (summary in words): inhibited proliferation of, induced cell cycle arrest in and induced apoptosis of Jurkat T cells

## GTGTGTGTGTGTGTGTGTGTGTGTGTG [SEQ ID NO:1] (chemistry not given here)
[10]
  tumor mass: less tumor mass than group 1 mice
[1]
  % INHIBITION of D-17 canine osteosarcoma cell proliferation: 23%
[2]
  % of cells in phase: G0/G1: 40.6%
  % of cells in phase: G2/M: 0.3%
  % of cells in phase: SE: 35.6%
  % of cells in phase: SL: 9.3%
  % of cells in phase: SM: 14.2%
  Arrest (cell cycle): End SE
[11]
  % NUMA RELEASED: 22%
[3]
  % INHIBITION of CF-51 canine mammary gland cancer cell proliferation: 23%
[12]; [13]
  % INHIBITION of MCF-7 proliferation, 5-Fluorouracil 0.1 μg/ml: 24%
[12]; [14]
  % INHIBITION of MCF-7 proliferation, 5-Fluorouracil 1.0 μg/ml: 35%
[12]; [15]
  % INHIBITION of MCF-7 proliferation, 5-Fluorouracil 10.0 μg/ml: 33%
[12]; sequence 1.0 μg/ml, 0.1 μg/ml 5-fluorouracil
  potentiation of antineoplastic effect of 5-fluorouracil on MCF-7 cell proliferation: did not potentiate
[12]; sequence 1.0 μg/ml, 0.1 μg/ml tamoxifen
  potentiation of antineoplastic effect of tamoxifen on MCF-7 cell proliferation: did not potentiate
[12]; [16]
  % INHIBITION of MCF-7 proliferation, 5-Fluorouracil 0.0 μg/ml: 8%
[12]; sequence at 1.0 μg/ml, tamoxifen 0.0 μg/ml
  % INHIBITION of MCF-7 proliferation, Tamoxifen 0.0 μg/ml: 8%
[12]; tamoxifen 0.1 μg/ml, alone or with sequence at 1.0 μg/ml
  % INHIBITION of MCF-7 proliferation, Tamoxifen 0.1 μg/ml: 19%
[12]; tamoxifen 1.0 μg/ml, alone or with sequence at 1.0 μg/ml
  % INHIBITION of MCF-7 proliferation, Tamoxifen 1.0 μg/ml: 24%
[12]; tamoxifen 10.0 μg/ml, alone or with sequence at 1.0 μg/ml
  % INHIBITION of MCF-7 proliferation, Tamoxifen 10.0 μg/ml: 20%
[4]
  % INHIBITION of EL-4 murine T lymphoma cell proliferation: 1%
[8]
  % INHIBITION of Jurkat human leukemia T cell proliferation: 51%
[8]; [13]
  % INHIBITION of Jurkat proliferation, 5-Fluorouracil 0.1 μg/ml: 15%
[8]; [14]
  % INHIBITION of Jurkat proliferation, 5-Fluorouracil 1.0 μg/ml: 25%
[8]; [15]
  % INHIBITION of Jurkat proliferation, 5-Fluorouracil 10.0 μg/ml: 41%
[8]; cisplatin 0.1 μg/ml, alone or with sequence at 1.0 μg/ml
  % INHIBITION of Jurkat proliferation, Cisplatin 0.1 μg/ml: 18%
[8]; cisplatin 1.0 μg/ml, alone or with sequence at 1.0 μg/ml
  % INHIBITION of Jurkat proliferation, Cisplatin 1.0 μg/ml: 35%
[8]; cisplatin 10.0 μg/ml, alone or with sequence at 1.0 μg/ml
  % INHIBITION of Jurkat proliferation, Cisplatin 10.0 μg/ml: 76%
[8]; sequence 1.0 μg/ml, 0.1 and 1.0 μg/ml 5-fluorouracil
  potentiation of antineoplastic effect of 5-fluorouracil on Jurkat T cell proliferation: potentiated
[8]; [16]
  % INHIBITION of Jurkat proliferation, 5-Fluorouracil 0.0 μg/ml: 3%
[8]; sequence at 1.0 μg/ml, cisplatin 0.0 μg/ml
  % INHIBITION of Jurkat proliferation, Cisplatin 0.0 μg/ml: 3%

## GTGTGTTTGGTGGTTTTGTTTGTTGTTTTTTTG (DNA, backbone not given here) [SEQ ID NO:66]
[1]
  % INHIBITION of D-17 canine osteosarcoma cell proliferation: 23%
[3]
  % INHIBITION of CF-51 canine mammary gland cancer cell proliferation: 23%
[4]
  % INHIBITION of EL-4 murine T lymphoma cell proliferation: −1%
Caspase 3 [5]
  processing of inactive pro-caspase 3 to active caspase 3: induced processing of inactive pro-caspase 3 to active caspase 3
Caspase 3 [6]
  caspase 3 activity greater than in control cells: 105%
